Assay results reported in patent US5582832A, “Compositions for topical application to skin” (priority 1995, dated 1996).

Experiments:
Assay type in all cases: cell-based, human
keratinocytes = test: Rate of DNA synthesis (3H-thymidine incorporation) in keratinocytes; conditions: for keratinocyte DNA synthesis, % of the corresponding controls (1 uM Econazole) / keratinocyte DNA synthesis, % of the corresponding controls (10 uM Econazole) / keratinocyte DNA synthesis, % of the corresponding controls (no azole): Table 5; for keratinocyte DNA synthesis, % of the corresponding controls (1 uM Econazole): 1 uM ceramide + 1 uM Econazole; for keratinocyte DNA synthesis, % of the corresponding controls (1 uM Econazole) / keratinocyte DNA synthesis, % of the corresponding controls (10 uM Econazole) / keratinocyte DNA synthesis, % of the corresponding controls (no azole) / DNA synthesis (% control) / DNA synthesis / DNA synthesis, % of control (azole, only 100 nM 1,25D): 100 nM 1,25D; for keratinocyte DNA synthesis, % of the corresponding controls (10 uM Econazole): 1 uM ceramide + 10 uM Econazole; for keratinocyte DNA synthesis, % of the corresponding controls (10 uM Econazole) / keratinocyte DNA synthesis, % of the corresponding controls (no azole) / DNA synthesis, % of control (100 nM 1,25D + 5 uM ceramide Formula A): * = synergistic effect; for keratinocyte DNA synthesis, % of the corresponding controls (no azole): 1 uM ceramide; for DNA synthesis / DNA synthesis, % of control (100 nM 1,25D + 5 uM ceramide Formula A) / DNA synthesis, % of control (azole, only 100 nM 1,25D): mean + SD; for DNA synthesis, % of control (100 nM 1,25D + 5 uM ceramide Formula A) / DNA synthesis, % of control (azole, only 100 nM 1,25D): Table 4; for DNA synthesis, % of control (100 nM 1,25D + 5 uM ceramide Formula A): 10 uM azole (or no azole) + 100 nM 1,25D + 5 uM ceramide Formula A; for DNA synthesis, % of control (azole, only 100 nM 1,25D): 10 uM azole, no ceramide
Experimental: (§1) 1. Normal human keratinocytes isolated from neonatal foreskins by trypsin treatment were grown in DME medium/10% fetal calf serum in the presence of irradiated 3T3 mouse fibroblasts for establishing dividing keratinocyte colonies. Keratinocytes were grown under the above condition until their third passage.
2. For the experiments, third passage keratinocytes were plated into a serum-free keratinocyte growth medium (KSFM; obtained from Life Technologies, Grand Island, N.Y.) containing 0.09 mM calcium. 20,000 to 30,000 cells were plated into each well of 24 well cell culture plates and grown for 5 days, until the cells reach about 80% confluence.
3. Medium was changed to fresh medium and the various test materials were added to the medium from an ethanolic stock solution (10:00 AM). The final ethanol concentration in the cultures was kept below 0.2%. Control cultures received no tested material but were dosed with 0.2% ethanol. Each compound or combination was tested in three separate wells. By 4:00 PM, 1 uCi of ^3 H-thymidine (Amersham Corp., Sp activity 40 Ci/mmol) was added to the 1 ml medium in each well. The cells were incubated overnight and […] (10:00 AM next day) the amount of ^3 -thymidine associated with the cellular DNA of keratinocytes was assessed as described below.
4. The medium was aspirated, and the wells washed with 1 ml phosphate-buffered saline. The DNA and proteins of the cells in the plate were then precipitated by adding 1 ml of ice-cold 10% trichloroacetic acid (TCA). The plates were left on ice for 30 minutes to complete the precipitation process. TCA was then aspirated and each well was then washed four times with 5% TCA. The plates were then dried on a filter pad and the cells in the wells were dissolved in 0.5 ml of 0.1N sodium hydroxide. The sodium hydroxide was then neutralized using 0.1N hydrochloric acid and the solution (1 ml total volume) was then transferred to a scintillation vial. 50 μl samples from each vial were used for protein assay using BCA protein assay reagent obtained from Pierce Chemical Company. 8 ml of a scintillation fluid (Ecolume) was added to the rest of the solution in the vial, and the vials were counted in a scintillation counter to determine the amount of radioactivity in each vial. The DNA synthesis rate was then calculated as cpm ^3 H thymidine incorporated into total cellular DNA/microgram of cell protein for each individual well. Mean and standard deviation for each group was also calculated.
Rationale for using 1,25D is that in in vivo situation, these azoles will inhibit the endogenous degradation of the 1,25D which is obtained from the circulation. Azoles will act in keratinocytes to increase the endogenous levels of 1,25D within cells. Keratinocytes (70% confluent) were incubated with 10 uM of the different azoles in the presence of 100 nM 1,25D. One of the groups was treated with 5 uM of ceramide of Formula A in the medium. After four hours, all the wells were treated with 1 uCi ^3 H-thymidine and the rate of DNA synthesis was estimated as described in the methods.
Keratinocytes were incubated with 1 or 10 uM of Econazole in the presence of 1 uM of the different ceramide analogues and 100 nM 1,25D in the medium. Thymidine incorporation was measured with an overnight incubation as described in Example 2.

[1] = system: 1,25D degradation (vitamin D metabolism in keratinocytes); test: Vitamin D metabolism in keratinocytes: 1,25D degradation; conditions: for % degradation (1,25D): Table 1; for blocking of 1,25D degradation (in words) / 1,25D degradation (%): 1 uM; for blocking of 1,25D degradation (in words): 20 hours (Table 2); for 1,25D degradation (%): Table 2, 20 hour incubation, mean of duplicate (range); for 1,25D (% degradation): Table 3, 10 uM; for inhibition of 1,25D metabolism (in words): results of Table 1
Experimental: as §1
(§2) 80% confluent keratinocytes were incubated with 0.05 uCi of ^3 H-25D or ^3 H-1,25D for two hours or 20 hours in the presence of 1-100 uM of the different compounds. Reaction was stopped by addition of methanol and the cells and medium were extracted using chloroform:methanol. The chloroform layer was separated, dried and spotted on TLC plates. […] The amount of radioactivity in each lane was quantitated using the BioScan radioactive plate reader. The amount of radioactivity remaining in the peak area of 25D and 1,25D were calculated as % of control. The % remaining was subtracted from 100 to get the % degradation of the metabolites.
(§3) The data are expressed as mean of % degradation of 25D or 1,25D. The range is also given in parenthesis.

[2] = system: 25D degradation (vitamin D metabolism in keratinocytes); test: Vitamin D metabolism in keratinocytes: 25D degradation; conditions: for % degradation (25D): Table 1; for blocking of 25D degradation (in words) / 25D degradation (%): 1 uM; for blocking of 25D degradation (in words): 20 hours (Table 2); for 25D degradation (%): Table 2, 20 hour incubation, mean of duplicate (range); for 25D (% degradation): Table 3, 10 uM; for inhibition of 25D metabolism (in words): results of Table 1
Experimental: as §1, §2, §3

[3] = Tables 5A-5I, Econazole 10 uM, ceramide analogue 1 uM
[4] = Tables 4A-4F, azole 10 uM, ceramide Formula A 5 uM
[5] = Tables 4A-4F, azole 10 uM, 1440 min

## CCCCCCCCCCCCN(CC(O)CO)C(=O)C(O)CCCCCC (stereo not shown) [Formula K]
keratinocytes
  keratinocyte DNA synthesis, % of the corresponding controls (1 uM Econazole): 82.9 + 16.9%
  keratinocyte DNA synthesis, % of the corresponding controls (10 uM Econazole): 38.7 + 14.8%
  keratinocyte DNA synthesis, % of the corresponding controls (no azole): 100.2 ± 9.6%
keratinocytes; [3]
  DNA synthesis (% control): 80 % control
  DNA synthesis: 23958 + 5660 cpm 3H thymidine incorporated

## Nc1nc2ncc(CNc3ccc(C(=O)N[C@@H](CCC(=O)O)C(=O)O)cc3)nc2c(=O)[nH]1 [folic acid]
[1]; 100 uM compound
  % degradation (1,25D): 95%
[2]; 100 uM compound
  % degradation (25D): 78%

## Clc1ccc(COC(Cn2ccnc2)c2ccc(Cl)cc2Cl)cc1 (stereo not shown) [Econazole]
[1]
  blocking of 1,25D degradation (in words): very effective
  1,25D degradation (%): 46.8 (45.1-48.6) %
  inhibition of 1,25D metabolism (in words): most potent
[1]; 2 hours
  blocking of 1,25D metabolism (in words): ineffective
  1,25D (% degradation): 78%
[1]; 20 hours
  blocking of 1,25D metabolism (in words): very effective
  1,25D (% degradation): 2%
[1]; 10 uM compound
  % degradation (1,25D): 2%
[2]
  blocking of 25D degradation (in words): very effective
  25D degradation (%): 54.1 (44.3-63.9) %
  inhibition of 25D metabolism (in words): most potent
[2]; 2 hours
  blocking of 25D metabolism (in words): ineffective
  25D (% degradation): 92%
[2]; 20 hours
  blocking of 25D metabolism (in words): very effective
  25D (% degradation): 5%
[2]; 10 uM compound
  % degradation (25D): 5%
keratinocytes; 1440 min
  DNA synthesis, % of control (100 nM 1,25D + 5 uM ceramide Formula A): 22.5 + 2.4 % of control
  DNA synthesis, % of control (azole, only 100 nM 1,25D): 64.5 + 3.9 % of control
keratinocytes; [4]
  DNA synthesis: 94719 + 5732 cpm 3H thymidine incorporated
keratinocytes; [5]
  DNA synthesis (% control): 64.57 % control
keratinocytes; [3]
  DNA synthesis (% control): 50.5 % control
  DNA synthesis: 15147 + 4337 cpm 3H thymidine incorporated

## CCCCCCCCCCCCCCCCN(CC(O)CO)C(C)=O (stereo not shown) [Formula F]
keratinocytes
  keratinocyte DNA synthesis, % of the corresponding controls (1 uM Econazole): 84.3 + 1.96%
  keratinocyte DNA synthesis, % of the corresponding controls (10 uM Econazole): 40.9 + 9.0%
  keratinocyte DNA synthesis, % of the corresponding controls (no azole): 90.3 ± 21.4%
keratinocytes; [3]
  DNA synthesis (% control): 90.3 % control
  DNA synthesis: 27051 + 7858 cpm 3H thymidine incorporated

## N[C@@H](Cc1c[nH]c2ccccc12)C(=O)O [L-Tryptophan]
[1]; 100 uM compound
  % degradation (1,25D): 100%
[2]; 100 uM compound
  % degradation (25D): 83%

## Clc1ccccc1C(c1ccccc1)(c1ccccc1)n1ccnc1 [Clotrimazole]
[1]
  blocking of 1,25D degradation (in words): very effective
  1,25D degradation (%): 29.5 (21.8-37.2) %
  inhibition of 1,25D metabolism (in words): most potent
[1]; 2 hours
  blocking of 1,25D metabolism (in words): ineffective
  1,25D (% degradation): 77%
[1]; 20 hours
  blocking of 1,25D metabolism (in words): very effective
  1,25D (% degradation): 2%
[1]; 10 uM compound
  % degradation (1,25D): 2%
[2]
  blocking of 25D degradation (in words): very effective
  25D degradation (%): 47.4 (42.6-52.2) %
  inhibition of 25D metabolism (in words): most potent
[2]; 2 hours
  blocking of 25D metabolism (in words): ineffective
  25D (% degradation): 79%
[2]; 20 hours
  blocking of 25D metabolism (in words): very effective
  25D (% degradation): 5%
[2]; 10 uM compound
  % degradation (25D): 5%
keratinocytes; 1440 min
  DNA synthesis, % of control (100 nM 1,25D + 5 uM ceramide Formula A): 19.5 + 0.77 % of control
  DNA synthesis, % of control (azole, only 100 nM 1,25D): 35.2 + 6.5 % of control
keratinocytes; [4]
  DNA synthesis: 51610 + 6735 cpm 3H thymidine incorporated
keratinocytes; [5]
  DNA synthesis (% control): 35.2 % control

## CCCCCCCCCCCCCCC(O)CN(CCO)C(=O)CCCCC (stereo not shown) [Formula D]
keratinocytes; 1 uM, absence of azole
  growth inhibition by ceramide analogues (in words): significantly inhibitory
keratinocytes
  keratinocyte DNA synthesis, % of the corresponding controls (1 uM Econazole): 97.0 + 19.5%
  keratinocyte DNA synthesis, % of the corresponding controls (10 uM Econazole): 28.8 + 3.9%
  keratinocyte DNA synthesis, % of the corresponding controls (no azole): 69.5 ± 11.3%
keratinocytes; [3]
  DNA synthesis (% control): 69.5 % control
  DNA synthesis: 20817 + 3928 cpm 3H thymidine incorporated

## CC1=CC(=O)c2ccccc2C1=O [menadione (vitamin K1), menadione]
[1]; 100 uM compound
  % degradation (1,25D): 93%
[2]; 100 uM compound
  % degradation (25D): 89%
